Experimental data taken from patent US20050282743A1, “Molecular interactions in cells” (Arbor Vita Corporation, priority 2001, published 2005).
pKd: −log10 of the molar value. Peptide text beside a SMILES is read from it. * marks the point of attachment. Biotin = O=C1N[C@H]2[C@H](CS[C@H]2CCCCC(=O)*)N1

What was measured:
Format in all cases: binding
[1] = molecular target: T1, PDZ-domain polypeptide (GST/PDZ fusion protein) (Homo sapiens, UniProt Q5T2W1); assay: Apparent affinity (Kd) by titration of PL peptide in the G assay; conditions: Peptide Optimal Conc (Kd by titration of the PL peptide), PDZ PDZK-1, PDZ Domain 2
T1 construct: made in house; host or cells: E. coli (DH5alpha, BL21 or JM109)
Protocol: (§1) The third column labeled “Peptide Optimal Concentration” in the tables is a number reflective of the binding interaction between the PL protein and PDZ protein. […] The column labeled “Protein Optimal Concentration” refers to the protein concentration used to assay PL interaction (in ug/ml); a ‘0’ is indicative of 5 ug/ml protein concentration; any other value represents the concentration (in ug/ml) used to determine the dissociation constant for a given interaction.
The “A” and “G” assays described supra can be used to determine the “apparent affinity” of binding of a PDZ ligand peptide to a PDZ-domain polypeptide. Apparent affinity is determined based on the concentration of one molecule required to saturate the binding of a second molecule (e.g., the binding of a ligand to a receptor). Two particularly useful approaches for quantitation of apparent affinity of PDZ-ligand binding are provided infra.
In cases where satisfying the above criteria proves difficult, an alternative approach (infra) can be used.
(1) A fixed concentration of a PDZ-domain polypeptide and increasing concentrations of a labeled PL peptide (labeled with, for example, biotin or fluorescein, see TABLE 9 for representative peptide amino acid sequences) are mixed together in solution and allowed to react. In certain assays, peptide concentrations are 0.1 uM, 1 uM, 10 uM, 100 uM, 1 mM. In other assays, appropriate reaction times can range from 10 minutes to 2 days at temperatures ranging from 4° C. to 37° C. In some instances, the identical reaction can also be carried out using a non-PDZ domain-containing protein as a control (e.g., if the PDZ-domain polypeptide is fusion protein, the fusion partner can be used).
(2) PDZ-ligand complexes can be separated from unbound labeled peptide using a variety of methods known in the art.
(3) The PDZ-ligand complex is detected based on presence of the label on the peptide ligand using a variety of methods and detectors known to one of skill in the art. For example, if the label is fluorescein and the separation is achieved using HPSEC, an in-line fluorescence detector can be used. The binding can also be detected as described supra for the G assay.

[2] = molecular target: T2, KIAA0807(S) (PDZ Domain 1) (Homo sapiens, UniProt Q6P0Q8); assay: G' assay and Kd titration, TABLE 12
T2 construct: made in house; host or cells: E. coli (DH5alpha, BL21 or JM109)
T2 sequence (Q6P0Q8 with tags, fused parts or gaps): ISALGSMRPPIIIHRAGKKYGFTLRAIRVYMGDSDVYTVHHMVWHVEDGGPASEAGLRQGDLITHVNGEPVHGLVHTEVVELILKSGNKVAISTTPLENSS
Protocol: as §1
(§2) Finally, the seventh column labeled “Classification” is another measure of the level of binding. In particular, it provides an absorbance value at 450 nm which indicates the amount of PL peptide bound to the PDZ protein. The following numerical values have the following meanings: ‘1’—A450 nm 0-1; ‘2’—A450 nm 1-2; ‘3’—A450 nm 2-3; ‘4’—A450 nm 3-4; ‘5’—A450 nm of 4 more than 2× repeated; ‘0’—A450 nm 0, i.e., not found to interact. Thus, higher numbers indicate stronger interactions.
For convenience, the assay conditions described in this section are referred to as the “G′ assay” and the “G″ assay,” with the specific conditions described in the preceding section on G assays being referred to as the “G^0 assay.” The “G′ assay” is identical to the “G^0 assay” except at step (2) the peptide concentration is 10 uM instead of 20 uM.

[3] = molecular target: T3, KIAA807 (Homo sapiens, UniProt Q6P0Q8); assay: G' assay, TABLE 12; conditions: A450 nm class of biotinylated PL peptide bound; 0 in conc columns = peptide 10 uM, protein 5 ug/ml
T3 construct: made in house; host or cells: E. coli (DH5alpha, BL21 or JM109)
T3 sequence (Q6P0Q8 1104-1192 limits assumed): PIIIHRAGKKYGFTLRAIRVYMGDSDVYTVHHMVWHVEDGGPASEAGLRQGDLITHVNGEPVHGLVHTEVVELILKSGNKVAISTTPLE
Protocol: as §1, §2
(§3) For convenience, the assay conditions described in this section are referred to as the “G′ assay” and the “G″ assay,” with the specific conditions described in the preceding section on G assays being referred to as the “G^0 assay.” The “G′ assay” is identical to the “G^0 assay” except at step (2) the peptide concentration is 10 uM instead of 20 uM. […] Correspondingly, it slightly increases the certainty that detected interactions are of sufficient affinity and half-life to be of biological importance and useful therapeutic targets.

[4] = molecular target: T4, KIAA0561 (PDZ Domain 1) (Homo sapiens, UniProt O60307); assay: G' assay, TABLE 12; conditions: A450 nm class of biotinylated PL peptide bound; 0 in conc columns = peptide 10 uM, protein 5 ug/ml
T4 construct: made in house; host or cells: E. coli (DH5alpha, BL21 or JM109)
T4 sequence (O60307 with tags, fused parts or gaps): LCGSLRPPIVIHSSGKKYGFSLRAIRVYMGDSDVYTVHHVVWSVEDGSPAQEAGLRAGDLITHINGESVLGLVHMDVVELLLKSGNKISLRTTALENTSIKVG
Protocol: as §1, §2, §3

[5] = molecular target: T5, PDZK1 (PDZ Domain 2, 3, 4) (Homo sapiens, UniProt Q5T2W1); assay: G' assay, TABLE 12; conditions: A450 nm class of biotinylated PL peptide bound; 0 in conc columns = peptide 10 uM, protein 5 ug/ml
T5 construct: When more than one PDZ domain was cloned, the DNA portion cloned represents the PDZ domains and the cDNA portion located between individual domains; made in house; host or cells: E. coli (DH5alpha, BL21 or JM109)
Protocol: as §1, §2, §3

[6] = molecular target: T6, PDZ protein (GST-PDZ fusion) (Homo sapiens, UniProt Q9BYB0); assay: G' assay (10 uM PL peptide), results of TABLE 7 and TABLE 12; conditions: PDZ SHANK3, PDZ Domain 1
T6 construct: made in house; host or cells: E. coli (DH5alpha, BL21 or JM109)
T6 sequence (Q9BYB0 whole entry, the tested form may be a part): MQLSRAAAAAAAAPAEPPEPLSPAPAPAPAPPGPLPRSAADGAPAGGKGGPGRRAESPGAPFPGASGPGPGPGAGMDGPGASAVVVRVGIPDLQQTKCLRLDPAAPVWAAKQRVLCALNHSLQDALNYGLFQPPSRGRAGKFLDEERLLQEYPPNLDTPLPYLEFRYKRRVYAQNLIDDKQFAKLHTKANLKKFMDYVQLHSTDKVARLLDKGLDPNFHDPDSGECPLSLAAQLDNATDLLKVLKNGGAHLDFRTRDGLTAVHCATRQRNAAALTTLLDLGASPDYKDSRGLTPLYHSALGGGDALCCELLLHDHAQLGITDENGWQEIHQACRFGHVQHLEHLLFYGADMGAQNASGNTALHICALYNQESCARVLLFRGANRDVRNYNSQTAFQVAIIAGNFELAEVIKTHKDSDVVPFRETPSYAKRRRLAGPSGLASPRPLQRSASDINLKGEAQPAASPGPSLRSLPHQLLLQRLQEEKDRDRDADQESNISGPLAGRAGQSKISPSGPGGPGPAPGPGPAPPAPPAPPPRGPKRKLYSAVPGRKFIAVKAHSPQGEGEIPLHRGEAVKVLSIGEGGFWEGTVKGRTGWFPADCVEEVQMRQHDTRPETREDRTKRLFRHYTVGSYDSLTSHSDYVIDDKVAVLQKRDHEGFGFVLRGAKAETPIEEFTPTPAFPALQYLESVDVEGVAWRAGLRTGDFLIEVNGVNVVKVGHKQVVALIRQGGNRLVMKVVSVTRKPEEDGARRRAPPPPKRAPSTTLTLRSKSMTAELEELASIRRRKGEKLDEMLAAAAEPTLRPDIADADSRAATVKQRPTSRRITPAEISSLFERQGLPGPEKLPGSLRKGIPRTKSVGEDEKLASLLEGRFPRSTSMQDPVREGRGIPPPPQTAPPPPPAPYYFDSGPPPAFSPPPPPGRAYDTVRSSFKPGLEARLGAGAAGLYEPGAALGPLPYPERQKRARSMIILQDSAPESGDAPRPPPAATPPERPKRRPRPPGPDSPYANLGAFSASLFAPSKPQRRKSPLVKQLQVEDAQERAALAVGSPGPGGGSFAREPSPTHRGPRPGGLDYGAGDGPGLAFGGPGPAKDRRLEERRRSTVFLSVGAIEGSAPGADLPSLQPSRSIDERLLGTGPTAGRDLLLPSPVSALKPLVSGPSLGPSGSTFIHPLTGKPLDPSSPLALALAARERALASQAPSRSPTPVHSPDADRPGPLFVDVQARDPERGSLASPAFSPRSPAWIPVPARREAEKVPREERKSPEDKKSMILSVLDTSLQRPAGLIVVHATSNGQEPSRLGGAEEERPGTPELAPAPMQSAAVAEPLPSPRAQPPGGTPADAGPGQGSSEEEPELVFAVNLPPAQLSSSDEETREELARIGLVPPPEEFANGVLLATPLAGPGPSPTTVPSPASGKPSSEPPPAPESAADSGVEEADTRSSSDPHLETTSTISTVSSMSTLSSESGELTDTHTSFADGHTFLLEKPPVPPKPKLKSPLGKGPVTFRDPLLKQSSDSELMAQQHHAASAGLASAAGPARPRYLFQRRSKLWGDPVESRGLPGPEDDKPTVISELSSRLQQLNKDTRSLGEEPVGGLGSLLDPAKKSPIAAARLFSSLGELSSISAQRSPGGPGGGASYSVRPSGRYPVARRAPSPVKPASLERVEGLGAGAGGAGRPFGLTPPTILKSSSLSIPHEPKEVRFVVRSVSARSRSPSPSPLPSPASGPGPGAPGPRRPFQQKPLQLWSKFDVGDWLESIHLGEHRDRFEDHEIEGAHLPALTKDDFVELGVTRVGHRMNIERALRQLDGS
How it was run: (§4)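 Biotinylated PL peptides at 10 uM (vs 20 uM in G^0 assay) bound to GST-PDZ fusions; PDZ protein at 5 ug/ml unless another concentration listed. Bound peptide read as A450 nm, classified 0–5 (0 = A450 0; 5 = A450 >4 repeated).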

[7] = molecular target: T7, PDZ protein (GST-PDZ fusion) (Homo sapiens, UniProt Q9Y566); assay: as above; conditions: PDZ SHANK1, PDZ Domain 1
T7 construct: made in house; host or cells: E. coli (DH5alpha, BL21 or JM109)
T7 sequence (Q9Y566 whole entry, the tested form may be a part): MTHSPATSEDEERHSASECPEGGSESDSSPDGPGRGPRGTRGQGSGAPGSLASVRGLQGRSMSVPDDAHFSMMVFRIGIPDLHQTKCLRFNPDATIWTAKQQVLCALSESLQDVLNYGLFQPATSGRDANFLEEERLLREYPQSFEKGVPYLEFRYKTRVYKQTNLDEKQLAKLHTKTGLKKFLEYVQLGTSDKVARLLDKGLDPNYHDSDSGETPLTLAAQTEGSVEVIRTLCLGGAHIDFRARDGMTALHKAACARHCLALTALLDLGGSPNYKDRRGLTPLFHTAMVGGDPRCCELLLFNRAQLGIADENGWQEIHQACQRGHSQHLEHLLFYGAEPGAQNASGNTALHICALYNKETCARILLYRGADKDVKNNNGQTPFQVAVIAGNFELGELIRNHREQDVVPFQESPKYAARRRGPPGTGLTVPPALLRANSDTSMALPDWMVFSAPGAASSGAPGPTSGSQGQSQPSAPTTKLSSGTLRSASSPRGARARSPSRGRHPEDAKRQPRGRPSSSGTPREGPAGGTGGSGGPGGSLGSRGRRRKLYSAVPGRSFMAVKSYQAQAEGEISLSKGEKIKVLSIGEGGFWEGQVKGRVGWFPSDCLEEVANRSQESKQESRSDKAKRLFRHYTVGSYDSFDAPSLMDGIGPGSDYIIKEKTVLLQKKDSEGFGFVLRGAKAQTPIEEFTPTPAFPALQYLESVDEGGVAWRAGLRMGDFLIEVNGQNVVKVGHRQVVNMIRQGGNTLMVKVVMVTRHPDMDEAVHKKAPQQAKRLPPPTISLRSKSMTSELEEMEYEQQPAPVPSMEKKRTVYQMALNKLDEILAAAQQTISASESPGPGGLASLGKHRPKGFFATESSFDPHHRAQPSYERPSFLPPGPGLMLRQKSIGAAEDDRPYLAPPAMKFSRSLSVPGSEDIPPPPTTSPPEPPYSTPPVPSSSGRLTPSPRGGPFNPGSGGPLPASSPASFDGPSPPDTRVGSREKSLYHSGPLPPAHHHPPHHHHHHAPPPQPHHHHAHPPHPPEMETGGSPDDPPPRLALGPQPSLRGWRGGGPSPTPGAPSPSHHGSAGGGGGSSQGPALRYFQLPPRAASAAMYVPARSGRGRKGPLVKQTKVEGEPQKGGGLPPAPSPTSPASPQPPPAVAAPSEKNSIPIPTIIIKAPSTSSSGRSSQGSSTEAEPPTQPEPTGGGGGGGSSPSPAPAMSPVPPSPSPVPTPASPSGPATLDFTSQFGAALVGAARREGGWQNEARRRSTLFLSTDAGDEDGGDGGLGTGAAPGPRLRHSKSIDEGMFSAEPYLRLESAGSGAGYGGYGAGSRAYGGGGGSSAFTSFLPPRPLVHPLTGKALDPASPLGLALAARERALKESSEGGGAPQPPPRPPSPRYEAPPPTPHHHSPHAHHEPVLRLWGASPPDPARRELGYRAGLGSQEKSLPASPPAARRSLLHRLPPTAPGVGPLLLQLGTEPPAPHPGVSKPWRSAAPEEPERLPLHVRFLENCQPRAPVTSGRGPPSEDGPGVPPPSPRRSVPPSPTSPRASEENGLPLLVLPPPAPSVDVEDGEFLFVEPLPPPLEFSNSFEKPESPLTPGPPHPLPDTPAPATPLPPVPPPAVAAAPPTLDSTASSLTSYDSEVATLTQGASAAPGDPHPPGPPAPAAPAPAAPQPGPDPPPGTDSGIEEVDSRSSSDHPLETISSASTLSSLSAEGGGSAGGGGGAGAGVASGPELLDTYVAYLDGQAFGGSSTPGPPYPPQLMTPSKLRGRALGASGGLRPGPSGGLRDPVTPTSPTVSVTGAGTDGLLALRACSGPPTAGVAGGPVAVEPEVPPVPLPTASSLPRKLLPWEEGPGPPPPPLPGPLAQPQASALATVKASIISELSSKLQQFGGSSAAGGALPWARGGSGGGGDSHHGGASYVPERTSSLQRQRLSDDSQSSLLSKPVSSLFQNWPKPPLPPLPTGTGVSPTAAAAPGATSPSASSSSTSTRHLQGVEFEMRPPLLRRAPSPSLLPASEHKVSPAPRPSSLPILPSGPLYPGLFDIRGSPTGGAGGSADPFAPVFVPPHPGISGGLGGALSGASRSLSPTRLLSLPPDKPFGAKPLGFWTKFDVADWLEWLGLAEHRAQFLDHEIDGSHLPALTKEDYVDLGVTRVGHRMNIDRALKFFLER
How it was run: as §4

[8] = molecular target: T8, PDZ protein (GST-PDZ fusion) (Homo sapiens, UniProt Q5T2W1); assay: as above; conditions: PDZ PDZK-1, PDZ Domain 2
T8 construct: made in house; host or cells: E. coli (DH5alpha, BL21 or JM109)
T8 sequence (Q5T2W1 1-519): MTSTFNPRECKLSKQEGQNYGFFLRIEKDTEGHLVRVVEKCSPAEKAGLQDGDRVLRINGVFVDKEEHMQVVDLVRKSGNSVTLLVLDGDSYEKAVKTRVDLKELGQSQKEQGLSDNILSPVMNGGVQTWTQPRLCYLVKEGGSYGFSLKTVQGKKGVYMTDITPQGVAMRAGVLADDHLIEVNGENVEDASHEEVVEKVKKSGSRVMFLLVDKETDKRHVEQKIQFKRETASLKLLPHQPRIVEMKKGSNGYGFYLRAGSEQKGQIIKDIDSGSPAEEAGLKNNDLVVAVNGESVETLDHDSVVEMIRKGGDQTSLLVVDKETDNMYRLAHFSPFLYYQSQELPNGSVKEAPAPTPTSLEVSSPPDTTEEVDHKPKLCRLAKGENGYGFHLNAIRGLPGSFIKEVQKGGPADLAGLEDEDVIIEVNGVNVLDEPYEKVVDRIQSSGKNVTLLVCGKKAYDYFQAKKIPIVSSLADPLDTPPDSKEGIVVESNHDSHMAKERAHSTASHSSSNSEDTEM
How it was run: as §4

[9] = molecular target: T9, PDZ protein (GST-PDZ fusion) (Homo sapiens, UniProt O14745); assay: as above
T9 construct: made in house; host or cells: E. coli (DH5alpha, BL21 or JM109)
T9 sequence (O14745 1-358): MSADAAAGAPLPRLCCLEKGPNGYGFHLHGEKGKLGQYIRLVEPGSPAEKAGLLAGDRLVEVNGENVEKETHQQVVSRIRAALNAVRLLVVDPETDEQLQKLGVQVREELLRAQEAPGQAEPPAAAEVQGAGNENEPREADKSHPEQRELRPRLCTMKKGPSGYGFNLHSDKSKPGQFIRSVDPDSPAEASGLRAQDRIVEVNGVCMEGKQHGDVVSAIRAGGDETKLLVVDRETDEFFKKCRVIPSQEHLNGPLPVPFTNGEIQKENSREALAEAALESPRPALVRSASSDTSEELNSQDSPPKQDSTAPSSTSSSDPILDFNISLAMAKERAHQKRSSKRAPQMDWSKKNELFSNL
How it was run: as §4

With `CC(C)C[C@H](NC(=O)[C@H](CO)NC(=O)[C@H](CO)NC(=O)[C@H](CCCNC(=N)N)NC(=O)[C@H](CCCNC(=N)N)NC(=O)[C@H](Cc1c[nH]c2ccccc12)NC(=O)[C@H](CO)NC(=O)[C@@H]1CCCN1C(=O)CCCC[C@@H]1SC[C@@H]2NC(=O)N[C@@H]21)C(=O)N[C@@H](CO)C(=O)N[C@@H](CCC(=O)O)C(=O)N[C@@H](CO)C(=O)N[C@@H](CCC(=O)O)C(=O)N[C@@H](CC(N)=O)C(=O)N[C@@H](C)C(=O)N[C@H](C(=O)N[C@@H](CO)C(=O)N[C@@H](CC(C)C)C(=O)N[C@H](C(=O)N[C@H](C(=O)N[C@@H](Cc1ccccc1)C(=O)O)[C@@H](C)O)[C@@H](C)O)[C@@H](C)O` [BLR-1] (Biotin-PSWRRSSLSESENATSLTTF-OH; C-terminus assumed) the pKd [1] was 5.70, the pKd [2] was 6.00 and the Classification ([2]; A450 nm class of biotinylated PL peptide bound, 0 in conc columns = peptide 10 uM, protein 5 ug/ml) was 2 (A450 nm 1-2). The Classification [3] was 2 (A450 nm 1-2), the Classification [4] was 1 (A450 nm 0-1) and the Classification [5] was 1 (A450 nm 0-1). The Classification [6] was 3 (A450 nm 2-3), the Classification [7] was 3 (A450 nm 2-3) and the Classification [8] was 1 (A450 nm 0-1). The Classification ([9]; PDZ EBP50, PDZ Domain 1) was 3 (A450 nm 2-3) and the Classification ([9]; PDZ EBP50, PDZ Domain 2) was 3 (A450 nm 2-3).
